Article PMC7352342, “Inhibition of Patched Drug Efflux Increases Vemurafenib Effectiveness against Resistant Braf^V600E Melanoma” (Cancers, 2020)

Assays:
[1] = Cytotoxicity assay (neutral red), WM9R cells; assay type: cell-based; details: human, WM9R melanoma cells (vemurafenib-resistant); read-out: sPAH-IC50 (cytotoxicity of sPAH alone)
Method: (§1) Human melanoma cell lines A375 and MeWo were purchased from ATCC, and cultured in DMEM medium supplemented with 10% fetal bovine serum and penicillin/streptomycin (Invitrogen) at 37 °C in a 5% CO2/95% water-saturated air atmosphere. Melanoma cell lines SKMEL 28, SKMEL V3, WM9S, and WM9R were provided by Robert Ballotti (C3M, Nice, France). MeWo-dxrR cells were obtained by adding increasing concentrations of doxorubicin, up to 0.2 µM, in the culture medium over 6 months. These cells were grown in medium supplemented with 0.2 µM dxr. WM9R cells were obtained by adding increasing concentrations of vemurafenib, up to 5 µM, in the culture medium over 6 months. These cells were grown in medium supplemented with 5 µM vemurafenib. HEK cells were grown in 75 mm tissue culture dishes (Falcon, Franklin Lakes, NJ, USA) in Dulbecco’s modified Eagle’s medium (Gibco, Life Technologies, Saint Aubin, France) supplemented with 10% fetal calf serum (Hyclone, Thermo Fisher Scientific GMBH, Ulm, Germany) and 1% penicillin/streptomycin (Gibco, Life Technologies, Saint Aubin, France) in a humidified incubator at 37 °C (5% CO2).
(§2) Cells were seeded in 96-well plates in triplicate and grown in medium to achieve 70 to 80% confluence. […] Measurements were made in microplate readers (Multiskan Go Microplate Spectrophotometer from Thermo Scientific).

WM9R cells [2] = experiment: Cytotoxicity assay (neutral red), WM9R cells; assay type: cell-based; details: WM9R; sPAH 20 µM; 24 h
Method: as §1, §2

human Smoothened = target: T1, human Smoothened (Homo sapiens, UniProt Q99835); experiment: Microscale thermophoresis on membranes from yeast expressing human Smoothened; assay type: binding; details: MST; sPAH 15 nM to 250 µM
T1 construct: made in house; host or cells: yeast (membrane preparation)
T1 sequence (Q99835 28-787): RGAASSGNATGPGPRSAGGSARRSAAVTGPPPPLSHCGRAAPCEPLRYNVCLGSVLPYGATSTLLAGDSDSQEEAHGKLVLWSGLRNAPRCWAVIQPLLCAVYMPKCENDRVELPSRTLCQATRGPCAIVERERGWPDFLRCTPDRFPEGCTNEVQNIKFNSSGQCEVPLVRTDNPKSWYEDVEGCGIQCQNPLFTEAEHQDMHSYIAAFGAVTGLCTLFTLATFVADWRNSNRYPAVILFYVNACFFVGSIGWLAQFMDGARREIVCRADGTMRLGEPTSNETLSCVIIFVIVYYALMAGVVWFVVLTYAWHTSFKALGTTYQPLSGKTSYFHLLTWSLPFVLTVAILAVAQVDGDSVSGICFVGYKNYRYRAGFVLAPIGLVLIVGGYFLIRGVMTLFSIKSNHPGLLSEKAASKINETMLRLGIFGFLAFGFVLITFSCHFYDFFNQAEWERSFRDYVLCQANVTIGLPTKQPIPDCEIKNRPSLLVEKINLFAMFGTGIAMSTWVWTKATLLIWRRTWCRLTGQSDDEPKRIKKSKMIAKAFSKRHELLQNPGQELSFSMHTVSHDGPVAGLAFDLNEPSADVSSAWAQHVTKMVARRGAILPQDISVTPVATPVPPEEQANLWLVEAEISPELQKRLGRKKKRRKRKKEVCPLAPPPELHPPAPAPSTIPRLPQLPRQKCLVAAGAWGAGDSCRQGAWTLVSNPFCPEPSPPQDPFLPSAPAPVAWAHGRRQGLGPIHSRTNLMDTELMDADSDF
Method: Microscale thermophoresis (MST) is a biophysical technique that measures the strength of the interaction between two molecules by detecting a variation in the fluorescence signal of a fluorescently labeled target as a result of an IR-laser induced temperature change. The range of the variation in the fluorescence signal correlates with the binding of a ligand to the fluorescent target.
Membranes from yeast expressing human Ptch1 or human Smoothened were incubated at 30 µg/mL with 20 nM of the fluorescent dye NT-647 2nd gen (NanoTemper Technologies, München, Germany) to label the His-tag present at the c-terminus of both proteins. […] The fluorescence within the capillary is excited and detected through the same objective. […] The MST response of fluorescent proteins within the temperature gradient is detected. After activation of the IR laser, a decrease in fluorescence is observed which corresponds to temperature-related intensity change (TRIC) triggered by the fast temperature change and thermophoretic movement of the fluorescent proteins out of the heated sample volume. […] For analysis, the change in MST signal is expressed as the change in the normalized fluorescence (Fnorm), which is defined as F1/F0. […] The sPAH Kd was determined for 3 independent experiments.

A375 cells = experiment: Wound-healing assay, A375 cells; assay type: cell-based, human; details: 48 h after wounding, sPAH added to vemurafenib
Method: (§3) Once cells were confluent in 24-well plates, a wound was created using a p200 tip. Two pictures were taken at two different points of each well immediately after wounding, and 48 h after wounding. Images were taken with Leica DM IRB (5×). The width of the wound was measured using ImageJ software and reported as percentage final wound width/initial wound width.

WM9R cells [3] = experiment: Wound-healing assay, WM9R cells; assay type: cell-based; details: 48 h after wounding, sPAH added to vemurafenib
Method: as §3

chick embryos = experiment: sPAH toxicity on chick embryos; assay type: in vivo; details: 10 days
Method: These experiments were performed by the company INOVOTION (La Tronche, France). […] At this time (E9), an access point to the chorioallantoic membrane (CAM) was made by drilling a small hole through the eggshell into the air sac and a 1 cm^2 window was cut in the eggshell above the CAM. Twenty-one eggs were used for each condition. […] MeWo cells cultivated in DMEM medium with 10% FBS (and 1% penicillin/streptomycin) were detached with trypsin, washed with complete medium, labeled, and suspended in PBS. An inoculum of 3 × 10^6 cells was added onto the CAM of each egg (E9). Eggs were then randomized in 4 groups. The chick embryos were then treated every two days (E11, E13, E15, E17) for 10 days in total, by adding 100 µL of vehicle (1% DMSO in PBS) as a negative control or 100 µL of sPAH at 3 different doses onto the CAM. The number of dead embryos evaluates the toxicity after 10 days of the treatment, as does the observation of 22 abnormality checkpoints in surviving embryos.

With `COc1cc(C)c(CC/C(C)=C/Cc2cc(O)ccc2O)c(C)c1C` [sPAH, Panicein A hydroquinone] the IC50 [1] was 41 ± 6.2 µM, the “change of the IC50 of vemurafenib in the presence of sPAH” value (WM9R cells [2]) was “decrease by a factor of ten” and the “binding to membranes from yeast expressing Smoothened” value (human Smoothened) was “does not bind”. For the same molecule, the “effect on vemurafenib efficacy against cell migration” value (A375 cells) was “increased vemurafenib efficacy”, the “effect on vemurafenib efficacy against cell migration” value (WM9R cells [3]) was “the same effect was observed” and the “abnormalities in surviving embryos (22 checkpoints)” value (chick embryos; 100 µM to 1 mM) was “no abnormalities were observed”. For the same molecule, the acute toxicity (chick embryos; up to the highest dose of 1 mM) was “No acute toxicity was observed”.
